Results taken from the NIST ThermoML archive (doi:10.1016/j.jct.2019.06.017).
Several values for one entry are separate records, joined by “and”; a condition that tells them apart may be missing. Identical values can stand only once.

Experiment: Boiling temperature at pressure P
Conditions: Liquid, Ebulliometric method (Recirculating still)

OCCN1CCCC1 [1-(2-hydroxyethyl)pyrrolidine]
Conditions	Boiling temperature at pressure P [°C]
2.8 kPa	87.5
4.8 kPa	99.1
9.8 kPa	115.7
19.8 kPa	132.4
29.8 kPa	144
39.8 kPa	153.0
49.8 kPa	159.5
59.8 kPa	165.0
69.8 kPa	169.5
79.8 kPa	173.8
89.8 kPa	176.7

CCN(CC)CCCO [3-diethylamino-1-propanol]
Conditions	Boiling temperature at pressure P [°C]
1.8 kPa	80.8
2.8 kPa	87.1
19.8 kPa	132.2
22.3 kPa	136.1
24.8 kPa	139.0
34.8 kPa	147.1
44.8 kPa	154.2
54.8 kPa	160.2
64.8 kPa	167.0
69.8 kPa	169.1

CN(C)CCCO [3-dimethylamino-1-propanol]
Conditions	Boiling temperature at pressure P
4.8 kPa	79.2 °C and 79.8 °C
9.8 kPa	95.2 °C
14.8 kPa	105.4 °C
19.8 kPa	112.7 °C
29.8 kPa	123.7 °C
39.8 kPa	132 °C
49.8 kPa	138.5 °C
59.8 kPa	144.1 °C
69.8 kPa	148.6 °C
79.8 kPa	153.2 °C
89.8 kPa	156.8 °C
99.8 kPa	160.6 °C

O [water]
Conditions	Boiling temperature at pressure P [°C]
9.8 kPa	45.2
19.8 kPa	60
29.8 kPa	69.0
39.8 kPa	75.8
49.8 kPa	81.2
59.8 kPa	86.0
69.8 kPa	90.0
79.8 kPa	93.6
100.1 kPa	99.5
